For one series, the system named is subjects with dry eye. Description: Tear film break up time (TFBUT), Example 1 clinical study. The class given is in vivo, human. Particulars: for Tear Film Break Up Time, change from baseline (mean): visit 2 (baseline) to visit 5, 0.05% and 0.1% groups pooled; for Tear Film Break Up Time, Mean Difference between Tβ4 and Placebo (Tβ4-Placebo): visit 2 to visit 5. The method, then:
As used herein, the terms “tear breakup time” or “TBUT” or “tear film breakup time” or “TFBUT” can refer to a clinical test that measures the interval between the individual's last complete blink and the breakup of the tear film. The test can be used to assess for DES. To measure TBUT, fluorescein is instilled into the patient's tear film and the patient is asked not to blink while the tear film is observed under a broad beam of cobalt blue illumination. The TBUT is recorded as the number of seconds that elapse between the last blink and the appearance of the first dry spot in the tear film.
The presently disclosed subject matter also provides for methods of improving tear film stability. Tear film stability can be evaluated by various assessments in the art, including but not limited to a TFBUT analysis. […] In order to achieve maximum fluorescence, an appropriate waiting period is implemented after instillation before evaluating TFBUT. With the aid of a slit-lamp, the integrity of the tear film can be monitored by noting the time it takes to form […] from the time that the eye is opened. TFBUT can be measured in seconds using a stopwatch and a digital image recording system for one eye followed by the second eye. A negative test result is normal, whereby more than about 10 seconds of TFBUT is recorded.
This study was a multicenter, randomized, double-masked study designed to evaluate the efficacy and safety of 0.05% and 0.1% Tβ4 ophthalmic solution compared to placebo in subjects with dry eye.
The study consisted of two periods: a 7-day run-in period and a 28-day treatment period.
The clinical dosage form and packaging of Tβ4 ophthalmic solution and the placebo ophthalmic solutions were identical sterile, low-density polyethylene unit-dose non-preserved bottles. They were packaged in foil-wrap pouches to prevent light exposure, each containing single-use bottles. Throughout the study, between day 1 and day 29, patients were instructed to instill one drop of study medication in each eye four times daily, once in the morning, noon, afternoon and in the evening before bed. Patients were assigned randomization kit numbers in strict numerical sequence, using a code generated by an independent biostatistician. All investigators, study and site personnel, and patients were masked to the treatment assignments.
Patients were evaluated on day 8 (visit 3), day 15 (visit 4), and day 29 (visit 5) during the dosing period. Exposure to the CAE occurred on days 14 and 28. At each study visit, a panel of dry eye signs and symptoms and safety measures were evaluated (including both before [pre-CAE] and after [post-CAE] exposure).

The conditions of series [1]: injectable solution, 14 consecutive days, four escalating dose levels; cited from earlier work.
[2] abbreviates: higher tear film stability group.
The mark [3] stands for this setting: lower tear film stability group.

For thymosin beta 4 [Tβ4], the figures for the “Tear Film Break Up Time, change from baseline (mean)” value with subjects with dry eye (setting [2]) and in the series with subjects with dry eye (setting [3]) were 0.14 s and 0.74 s, respectively. Also, the entries for the “Tear Film Break Up Time, Mean Difference between Tβ4 and Placebo (Tβ4-Placebo)” value in the series on subjects with dry eye (setting [2]) and in the series on subjects with dry eye (setting [3]) were 0.09 s and 0.20 s, respectively. The safety and tolerability result in series [1] is “safe and well-tolerated”.

The values are drawn from patent publication US20210213103A1, “METHODS OF TREATING DRY EYE SYNDROME” (REGENTREE, LLC, priority 2016, published 2021).
